How the values were obtained:
CFTR = molecular target: T1, CFTR (Homo sapiens, UniProt P13569, DEL508-508); assay: TECC24 AUC fold over DMSO @10 μM, CFTR-mediated transepithelial chloride transport in CF-HBE cells; type: cell-based; settings: test agent AUC divided by DMSO vehicle AUC, primary CF-HBE cells, ΔF508 homozygous donor, 48 hours incubation
T1 construct: Primary human bronchial epithelial cells from a ΔF508 homozygous CF donor; host or cells: primary human bronchial epithelial cells (CF-HBE), ΔF508 homozygous donor
How it was run: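 Primary ΔF508-homozygous CF bronchial epithelial cells on inserts were incubated 48 h at 36.5 °C with compound in IL-13-containing medium. VT and TEER were then recorded in current-clamp mode (pH 7.4 HEPES bath) with benzamil 10 μM, forskolin 10 μM, then CFTR inhibitor-172 20 μM. The IEQ AUC between forskolin and inhibitor was divided by vehicle AUC.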

NBD1 = molecular target: T2, NBD1 (Homo sapiens, UniProt P13569); assay: Aggregation analysis using differential static light scattering (DSLS), thermal stability of NBD1 (ΔTagg); type: binding; settings: ΔTagg versus DMSO control, NBD1 0.2 mg/ml
T2 construct: Purified recombinant NBD1 was produced using previously described methods; made in house
How it was run: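 Purified recombinant NBD1 at 0.2 mg/ml in Tris buffer pH7.6 with 2 mM ATP, 5 mM MgCl2, 2 mM DTT and 1% glycerol was mixed with DMSO-dissolved compounds under mineral oil. Plates were heated at 1° C. per minute to 70° C., light scattering imaged every 0.5° C.; Tagg from curve inflection, minus DMSO-control mean.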

T1 sequence (P13569 with tags, fused parts or gaps DEL508-508): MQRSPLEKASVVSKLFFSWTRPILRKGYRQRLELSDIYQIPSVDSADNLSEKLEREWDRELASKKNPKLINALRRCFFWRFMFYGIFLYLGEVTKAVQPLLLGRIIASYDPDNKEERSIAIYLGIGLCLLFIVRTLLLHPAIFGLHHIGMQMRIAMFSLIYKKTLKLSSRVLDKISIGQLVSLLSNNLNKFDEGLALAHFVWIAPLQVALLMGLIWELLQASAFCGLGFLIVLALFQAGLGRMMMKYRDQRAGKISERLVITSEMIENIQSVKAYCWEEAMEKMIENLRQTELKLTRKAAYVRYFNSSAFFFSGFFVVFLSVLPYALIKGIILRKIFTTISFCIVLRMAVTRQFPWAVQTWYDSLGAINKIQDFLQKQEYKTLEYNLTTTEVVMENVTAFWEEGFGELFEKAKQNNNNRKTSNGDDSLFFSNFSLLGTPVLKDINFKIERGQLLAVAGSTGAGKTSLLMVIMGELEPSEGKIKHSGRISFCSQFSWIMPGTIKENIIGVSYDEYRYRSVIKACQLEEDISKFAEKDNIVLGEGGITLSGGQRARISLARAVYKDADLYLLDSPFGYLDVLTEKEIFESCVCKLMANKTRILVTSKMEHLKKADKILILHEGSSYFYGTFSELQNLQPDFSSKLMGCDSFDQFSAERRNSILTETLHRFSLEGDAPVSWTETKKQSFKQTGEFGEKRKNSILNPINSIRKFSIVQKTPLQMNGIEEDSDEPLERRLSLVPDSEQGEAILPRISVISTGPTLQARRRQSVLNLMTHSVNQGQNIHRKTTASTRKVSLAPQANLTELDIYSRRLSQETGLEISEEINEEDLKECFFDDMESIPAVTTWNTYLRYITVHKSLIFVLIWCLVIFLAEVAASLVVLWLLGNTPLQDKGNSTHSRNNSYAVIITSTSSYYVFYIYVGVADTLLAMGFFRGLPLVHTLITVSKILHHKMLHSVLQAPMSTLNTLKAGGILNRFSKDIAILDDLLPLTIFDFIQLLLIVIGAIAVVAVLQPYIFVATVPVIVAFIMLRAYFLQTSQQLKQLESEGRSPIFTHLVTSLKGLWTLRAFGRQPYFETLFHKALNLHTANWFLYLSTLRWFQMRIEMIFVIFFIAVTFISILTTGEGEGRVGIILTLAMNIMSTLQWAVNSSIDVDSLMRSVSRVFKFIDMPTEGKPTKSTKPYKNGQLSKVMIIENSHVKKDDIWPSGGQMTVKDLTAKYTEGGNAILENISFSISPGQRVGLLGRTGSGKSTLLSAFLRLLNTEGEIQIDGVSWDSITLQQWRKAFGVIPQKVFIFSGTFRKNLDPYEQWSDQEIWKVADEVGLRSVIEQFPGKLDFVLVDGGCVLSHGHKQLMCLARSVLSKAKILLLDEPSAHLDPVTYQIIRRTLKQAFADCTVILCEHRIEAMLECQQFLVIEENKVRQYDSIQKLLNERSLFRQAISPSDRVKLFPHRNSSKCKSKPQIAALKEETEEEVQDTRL
T2 sequence (P13569 423-646 limits assumed): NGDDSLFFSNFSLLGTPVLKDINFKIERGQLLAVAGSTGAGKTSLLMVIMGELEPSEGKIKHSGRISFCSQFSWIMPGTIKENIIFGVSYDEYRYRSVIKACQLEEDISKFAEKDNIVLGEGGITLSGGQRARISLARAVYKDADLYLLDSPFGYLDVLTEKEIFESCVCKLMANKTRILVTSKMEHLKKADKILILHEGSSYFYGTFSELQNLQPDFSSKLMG

Compound: CC(C)ONC(=O)[C@@H](C)Cc1cccc(C2(C)CCCC(C)(C)CS(=O)(=O)CCc3c(c(F)cc4[nH]ccc34)Oc3ccc(F)c(c3)-c3nc2nn3C)c1 (single isomer, unassigned) [Compound 189]
- TECC (AUC, 10 μM) (CFTR): B (a value between 12-20 is marked “B”)
- DSLS 3D (100 μM ΔT) (NBD1): B (a value above 5 °C and less than or equal to 10 °C is marked “B”)

Compound: Cn1nc2nc1-c1cc(ccc1F)Oc1c(F)cc3[nH]ccc3c1CCS(=O)(=O)CC(C)(C)CCCC2(C)c1cccc(CC2CC(=O)N(O)C2=O)c1 (single isomer, unassigned) [Compound 195A, 3-[[3-(22,28-difluoro-3,6,10,10-tetramethyl-12,12-dioxo-24-oxa-12λ6-thia-3,4,19,30-tetrazapentacyclo[23.3.1.12,5.015,23.016,20]triaconta-1(29),2(30),4,15,17,20,22,25,27-nonaen-6-yl)phenyl]methyl]-1-hydroxy-pyrrolidine-2,5-dione]
- TECC (AUC, 10 μM) (CFTR): C (a value between 20 and 80 is marked “C”)
- DSLS 3D (100 μM ΔT) (NBD1): C (a value greater than 10 °C and less than or equal to 25 °C is marked “C”)

Compound: Cn1nc2nc1-c1cc(ccc1F)Oc1c(F)cc3[nH]ccc3c1CCS(=O)(=O)CC(C)(C)CCCC2(C)c1cccc(CC2CC(=O)N(O)C2=O)c1 (single isomer, unassigned) [Compound 195B, 3-[[3-(22,28-difluoro-3,6,10,10-tetramethyl-12,12-dioxo-24-oxa-12λ6-thia-3,4,19,30-tetrazapentacyclo[23.3.1.12,5.015,23.016,20]triaconta-1(29),2(30),4,15,17,20,22,25,27-nonaen-6-yl)phenyl]methyl]-1-hydroxy-pyrrolidine-2,5-dione]
- TECC (AUC, 10 μM) (CFTR): C (a value between 20 and 80 is marked “C”)
- DSLS 3D (100 μM ΔT) (NBD1): C (a value greater than 10 °C and less than or equal to 25 °C is marked “C”)

Compound: Cn1nc2nc1-c1cc(ccc1F)Oc1c(F)cc3[nH]ccc3c1CCS(=O)(=O)CC(C)(C)CCCC2(C)c1cccc(CC2CC(=O)NC2=O)c1 (single isomer, unassigned) [Compound 196A, 3-[[3-(22,28-difluoro-3,6,10,10-tetramethyl-12,12-dioxo-24-oxa-12λ6-thia-3,4,19,30-tetrazapentacyclo[23.3.1.12,5.015,23.016,20]triaconta-1(29),2(30),4,15,17,20,22,25,27-nonaen-6-yl)phenyl]methyl]pyrrolidine-2,5-dione]
- TECC (AUC, 10 μM) (CFTR): A (a TECC value less than 12 is marked “A”)
- DSLS 3D (100 μM ΔT) (NBD1): C (a value greater than 10 °C and less than or equal to 25 °C is marked “C”)

Compound: Cn1nc2nc1-c1cc(ccc1F)Oc1c(F)cc3[nH]ccc3c1CCS(=O)(=O)CC(C)(C)CCCC2(C)c1cccc(CC2CC(=O)NC2=O)c1 (single isomer, unassigned) [Compound 196B, 3-[[3-(22,28-difluoro-3,6,10,10-tetramethyl-12,12-dioxo-24-oxa-12λ6-thia-3,4,19,30-tetrazapentacyclo[23.3.1.12,5.015,23.016,20]triaconta-1(29),2(30),4,15,17,20,22,25,27-nonaen-6-yl)phenyl]methyl]pyrrolidine-2,5-dione]
- TECC (AUC, 10 μM) (CFTR): A (a TECC value less than 12 is marked “A”)
- DSLS 3D (100 μM ΔT) (NBD1): A (an ΔTagg value less than or equal to 5 °C is marked “A”)

Compound: C[C@@H](Cc1cccc([C@@]2(C)CCCC(C)(C)CS(=O)(=O)CCc3c(c(F)cc4[nH]ccc34)[S+]([O-])c3ccc(F)c(c3)-c3nc2nn3C)c1)C(=O)O (single isomer, unassigned) [Compound 204]
- TECC (AUC, 10 μM) (CFTR): C (a value between 20 and 80 is marked “C”)
- DSLS 3D (100 μM ΔT) (NBD1): C (a value greater than 10 °C and less than or equal to 25 °C is marked “C”)

Compound: C[C@@H](Cc1cccc([C@@]2(C)CCCC(C)(C)CS(=O)(=O)CCc3c(c(F)cc4[nH]ccc34)[S+]([O-])c3ccc(F)c(c3)-c3nc2nn3C)c1)C(=O)O (single isomer, unassigned) [Compound 205]
- TECC (AUC, 10 μM) (CFTR): A (a TECC value less than 12 is marked “A”)
- DSLS 3D (100 μM ΔT) (NBD1): B (a value above 5 °C and less than or equal to 10 °C is marked “B”)

Compound: C[C@H](Cc1cccc([C@@]2(C)CCCC(C)(C)CS(=O)(=O)CCc3c(c(F)cc4[nH]ccc34)[S+]([O-])c3ccc(F)c(c3)-c3nc2nn3C)c1)C(=O)O (single isomer, unassigned) [Compound 206A]
- TECC (AUC, 10 μM) (CFTR): C (a value between 20 and 80 is marked “C”)
- DSLS 3D (100 μM ΔT) (NBD1): C (a value greater than 10 °C and less than or equal to 25 °C is marked “C”)

Compound: C[C@H](Cc1cccc([C@@]2(C)CCCC(C)(C)CS(=O)(=O)CCc3c(c(F)cc4[nH]ccc34)[S+]([O-])c3ccc(F)c(c3)-c3nc2nn3C)c1)C(=O)O (single isomer, unassigned) [Compound 206B]
- TECC (AUC, 10 μM) (CFTR): A (a TECC value less than 12 is marked “A”)
- DSLS 3D (100 μM ΔT) (NBD1): B (a value above 5 °C and less than or equal to 10 °C is marked “B”)

Compound: Cn1nc2nc1-c1cc(ccc1F)[S+]([O-])c1c(F)cc3[nH]ccc3c1CCS(=O)(=O)CC(C)(C)CCC[C@]2(C)c1cccc(CC(=O)O)c1 (single isomer, unassigned) [Compound 209A]
- TECC (AUC, 10 μM) (CFTR): A (a TECC value less than 12 is marked “A”)
- DSLS 3D (100 μM ΔT) (NBD1): B (a value above 5 °C and less than or equal to 10 °C is marked “B”)

Compound: Cn1nc2nc1-c1cc(ccc1F)[S+]([O-])c1c(F)cc3[nH]ccc3c1CCS(=O)(=O)CC(C)(C)CCC[C@]2(C)c1cccc(CC(=O)O)c1 (single isomer, unassigned) [Compound 209B]
- TECC (AUC, 10 μM) (CFTR): C (a value between 20 and 80 is marked “C”)
- DSLS 3D (100 μM ΔT) (NBD1): C (a value greater than 10 °C and less than or equal to 25 °C is marked “C”)

Compound: C[C@@H](Cc1cccc([C@@]2(C)CCCC(C)(C)CS(=O)(=O)CCc3c(c(F)cc4[nH]ccc34)[S+]([O-])c3cccc(c3)-c3nc2nn3C)c1)C(=O)O (single isomer, unassigned) [Compound 211A]
- TECC (AUC, 10 μM) (CFTR): B (a value between 12-20 is marked “B”)
- DSLS 3D (100 μM ΔT) (NBD1): C (a value greater than 10 °C and less than or equal to 25 °C is marked “C”)

Compound: C[C@@H](Cc1cccc([C@@]2(C)CCCC(C)(C)CS(=O)(=O)CCc3c(c(F)cc4[nH]ccc34)[S+]([O-])c3cccc(c3)-c3nc2nn3C)c1)C(=O)O (single isomer, unassigned) [Compound 211B]
- TECC (AUC, 10 μM) (CFTR): A (a TECC value less than 12 is marked “A”)
- DSLS 3D (100 μM ΔT) (NBD1): C (a value greater than 10 °C and less than or equal to 25 °C is marked “C”)

Compound: Cn1nc2nc1-c1cc(ccc1F)[S+]([O-])c1c(F)cc3[nH]ccc3c1CCS(=O)(=O)CC(C)(C)CCC[C@]2(C)c1cccc(CCC(=O)O)c1 (single isomer, unassigned) [Compound 215A]
- TECC (AUC, 10 μM) (CFTR): A (a TECC value less than 12 is marked “A”)
- DSLS 3D (100 μM ΔT) (NBD1): C (a value greater than 10 °C and less than or equal to 25 °C is marked “C”)

Compound: Cn1nc2nc1-c1cc(ccc1F)[S+]([O-])c1c(F)cc3[nH]ccc3c1CCS(=O)(=O)CC(C)(C)CCC[C@]2(C)c1cccc(CCC(=O)O)c1 (single isomer, unassigned) [Compound 215B]
- TECC (AUC, 10 μM) (CFTR): C (a value between 20 and 80 is marked “C”)
- DSLS 3D (100 μM ΔT) (NBD1): C (a value greater than 10 °C and less than or equal to 25 °C is marked “C”)

Compound: Cn1nc2nc1-c1cc(ccc1F)[S+]([O-])c1c(F)cc3[nH]ccc3c1CCS(=O)(=O)CC(C)(C)CCC[C@]2(C)c1cccc(CCO)c1 (single isomer, unassigned) [Compound 216A]
- TECC (AUC, 10 μM) (CFTR): B (a value between 12-20 is marked “B”)
- DSLS 3D (100 μM ΔT) (NBD1): B (a value above 5 °C and less than or equal to 10 °C is marked “B”)

Compound: Cn1nc2nc1-c1cc(ccc1F)[S+]([O-])c1c(F)cc3[nH]ccc3c1CCS(=O)(=O)CC(C)(C)CCC[C@]2(C)c1cccc(CCO)c1 (single isomer, unassigned) [Compound 216B]
- TECC (AUC, 10 μM) (CFTR): C (a value between 20 and 80 is marked “C”)
- DSLS 3D (100 μM ΔT) (NBD1): C (a value greater than 10 °C and less than or equal to 25 °C is marked “C”)

Compound: COCC(Cc1cccc([C@@]2(C)CCCC(C)(C)CS(=O)(=O)CCc3c(c(F)cc4[nH]ccc34)[S+]([O-])c3ccc(F)c(c3)-c3nc2nn3C)c1)C(=O)O (single isomer, unassigned) [Compound 218A]
- TECC (AUC, 10 μM) (CFTR): A (a TECC value less than 12 is marked “A”)
- DSLS 3D (100 μM ΔT) (NBD1): B (a value above 5 °C and less than or equal to 10 °C is marked “B”)

Compound: COCC(Cc1cccc([C@@]2(C)CCCC(C)(C)CS(=O)(=O)CCc3c(c(F)cc4[nH]ccc34)[S+]([O-])c3ccc(F)c(c3)-c3nc2nn3C)c1)C(=O)O (single isomer, unassigned) [Compound 218B]
- TECC (AUC, 10 μM) (CFTR): C (a value between 20 and 80 is marked “C”)
- DSLS 3D (100 μM ΔT) (NBD1): C (a value greater than 10 °C and less than or equal to 25 °C is marked “C”)

Compound: Cn1nc2nc1-c1cc(ccc1F)[S+]([O-])c1c(F)cc3[nH]ccc3c1CCS(=O)(=O)CC(C)(C)CCC[C@]2(C)c1cccc(CCS(C)(=O)=O)c1 (single isomer, unassigned) [Compound 220A]
- TECC (AUC, 10 μM) (CFTR): A (a TECC value less than 12 is marked “A”)
- DSLS 3D (100 μM ΔT) (NBD1): A (an ΔTagg value less than or equal to 5 °C is marked “A”)

Compound: Cn1nc2nc1-c1cc(ccc1F)[S+]([O-])c1c(F)cc3[nH]ccc3c1CCS(=O)(=O)CC(C)(C)CCC[C@]2(C)c1cccc(CCS(C)(=O)=O)c1 (single isomer, unassigned) [Compound 220B]
- TECC (AUC, 10 μM) (CFTR): C (a value between 20 and 80 is marked “C”)
- DSLS 3D (100 μM ΔT) (NBD1): C (a value greater than 10 °C and less than or equal to 25 °C is marked “C”)
